The values below come from publication PMC6960228, “Ethoxysanguinarine, a Novel Direct Activator of AMP-Activated Protein Kinase, Induces Autophagy and Exhibits Therapeutic Potential in Breast Cancer Cells” (Frontiers in Pharmacology, 2020).

Assay [1] deals with MCF-10A. Nature of the assay: MTT cytotoxicity assay. The format is cell-based, human. An excerpt: (§1) Human BC cell lines MCF-7, MDA-MB-231, DMA-MB-436, SK-BR3, MDA-MB-468, MDA-MB-453, and MDA-MB-435S and non-tumorigenic MCF-10A human mammary epithelial cells were obtained from American Type Culture Collection (ATCC; Manassas, VA, USA). MCF-7, SK-BR3, MDA-MB-231, and MDA-MB-436 cells were maintained in Dulbecco’s modified Eagle’s medium (DMEM; high glucose; Gibco; Thermo Fisher Scientific, Inc., Waltham, MA, USA) supplemented with 10% fetal bovine serum (FBS; HyClone; Logan, UT, USA) and antibiotics and incubated in a humidified atmosphere with 5% CO2 at 37°C. MDA-MB-468, MDA-MB-453, and MDA-MB-435S cells were maintained in Leibovitz’s L-15 (Gibco) supplemented with 10% FBS and antibiotics and incubated in a humidified atmosphere without CO2 at 37°C. MCF-10A cells were maintained in DMEM/F12 medium containing 5% horse serum (HS), insulin ([…]), epidermal growth factor (EGF, 20 ng/mL), choleratoxin ([…]), hydrocortisone ([…]), penicillin (50 U/mL), and streptomycin (50 U/mL), and incubated in a humidified atmosphere with CO2 at 37°C.
(§2) Cells were seeded into 96-well plate and pre-cultured for 24 h, then treated with Eth for 24. Cell cytotoxicity was determined by MTT assay. […]

Assay [2] relates to seven BC cell lines. In words: MTT assay, summary over BC cell lines. The format is cell-based. To be noted: Homo sapiens, range over BC cell lines.
Excerpt: as §1, §2

Assay [3] relates to AMPK. Nature of the assay: AMPK activity assay (CycLex kit) in treated cells. The settings on record: MCF-7, MDA-MB-231, and MDA-MB-436 cells treated with Eth. The format is cell-based, human. Here is the method:
AMPK kinase activity was assay was performed by AMPK kinase activity kit which was purchased from CycLex Co., Ltd. (Cat#CY-1182). Absorbance was measured at 450 nm.
Next we determined whether Eth modulates the activity of the AMPK kinase. For this purpose, MCF-7, MDA-MB-231, and MDA-MB-436 cells were treated with Eth and incubated for different time periods (1, 6, 12, and 24 h).
(§3) Figure 4 Eth is a direct activator of AMPK. (A): MCF-7, MDA-MB-231, or MDA-MB-436 cells were treated with increasing concentrations of Eth for 24 h, and AMPK activity assay was performed. (B): The binding mode of Eth docked into AMPK. (C): The binding mode of Eth docked into AMPK. α subunit is green, β subunit is cyan, γ subunit is magenta and Eth is gold. (D): Details of the binding site of Eth in the ADaM site of AMPK. The main residues involved in drug interactions are shown as labeled green sticks. α subunit is green, β subunit is cyan. The pSER-108 was shown in stick and colored by gold. (E) The interaction pattern of Eth with the residues. (F): The 2D representation of the AMPK crystal structure in complex with Eth. (G): Chemical structure of Eth intermediate and Biotin-labeled Eth. (H): Viability of MCF-7, MDA-MB-231 or MDA-MB-436 cells exposed to Biotin-Eth as determined by MTT assay. […]

Assay [4] deals with AMPKα. In words: Streptavidin agarose affinity assay. To be noted: Bio-Eth (4 μM) with or without Eth (12 μM), 3 h. Type of assay: binding, human. The procedure: Cell pellets were lysed and the supernatant collection was incubated with indicated antibodies overnight at 4°C, after which protein A/G Plus beads (Santa Cruz Biotechnology) were added and incubated at 4°C for 4 h. The beads were washed 4 times in NETN buffer (1% NP-40, 2 mM EDTA, 40 mM Tris-HCl, 137 mM NaCl, pH 7.4), resuspended in SDS-PAGE loading buffer and boiled for 5 min. For streptavidin agarose affinity assay, cells upon Bio-Eth were lysed; the lysates were incubated with streptavidin agarose, washed and boiled in SDS-PAGE loading buffer. […] Western blot assays were performed.
as §3, with “(F): The 2D representation of the AMPK crystal structure in complex with Eth. (G): Chemical structure of Eth intermediate and Biotin-labeled Eth.” left out

Assay [5] relates to MCF-7, MDA-MB-231, and MDA-MB-436 cells. Nature of the assay: Soft-agar colony formation assay. The format is cell-based, human. The settings on record: 2 weeks. The procedure: Cells were suspended in 1 mL of L-15 or DMEM containing 0.3% low-melting-point agarose (Amresco, Cleveland, Oh, USA) and 10% FBS, and plated on a bottom layer containing 0.6% agarose and 10% FBS in 6-well plate in triplicate. After 2 weeks, plates were stained with 0.2% gentian violet and the colonies were counted under light microscope (IX70; Olympus Corporation, Tokyo, Japan) after 2 weeks.

As for `CCOC1c2c(ccc3c2OCO3)-c2ccc3cc4c(cc3c2N1C)OCO4` (stereo not drawn) [Eth, Ethoxysanguinarine], the IC50 is 12.3 ± 2.05 µM in assay [1] (Homo sapiens, MCF-10A, 24 h, MTT assay, means ± SD of quadruplicate determinations) and 2.63 to 9.15 µM in assay [2]. In addition, in assay [1] (normal human mammary epithelial cell line MCF-10A), the “sensitivity to Eth compared with the BC cell lines” value was “less sensitive”. In assay [3], the AMPK activity result is on record as “robust increase in AMPK activity”. Further, in assay [4], the “binding of Bio-Eth to AMPKα in presence of unlabeled Eth” value is “significantly attenuated by unlabeled Eth”. Moreover, the “clonogenic ability (colony formation)” value in assay [5] is given as “significantly inhibited the clonogenic ability”.
